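Following 48 hours of exposure in 96-well plates, responses at five concentrations were used to interpolate endpoints linearly. Definition used: TGI = concentration required for complete inhibition of growth.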 Some results are limits rather than exact numbers.

What all share (assay): NCI-60 cell line screen, 48 h
Assay [1] concerns SK-MEL-2 melanoma.
Assay [2] has as its system SNB-19 CNS.
The subject of assay [3] is 786-0 renal.
For assay [4], the system named is DU-145 prostate.
Assay [5] relates to CCRF-CEM leukemia.
The subject of assay [6] is PC-3 prostate.
Assay [7] concerns T-47D breast.
Assay [8] concerns RXF 393 renal.
Assay [9] relates to UACC-62 melanoma.
In assay [10] the test system is NCI/ADR-RES ovarian.

Regarding `CCOC(=O)CCC(C(=O)OCC)n1nc2ccc(Nc3c(C)[n+]([O-])c4cc(Cl)ccc4[n+]3[O-])cc2n1` (stereo not drawn), the TGI in [1], in [2], in assay [3], in assay [4], in assay [5] and in assay [6] was greater than 100 µM in each case. Also, the TGI in assay [7], in assay [8], in assay [9] and in assay [10] was greater than 100 µM throughout.

With `OC(c1cccs1)c1cc2ccccc2s1` (stereo not drawn), the TGI in assay [1], in assay [2], in assay [3], in assay [4], in [5] and in [6] was greater than 10 µM throughout. The TGI in assay [7], in [8], in assay [9] and in [10] was greater than 10 µM each time.

Take `CCN1/C(=C/c2ccc3ccccc3[n+]2CC)C=Cc2ccccc21`: the TGI in [1] amounted to 3.9 µM; in assay [2], 27.8 µM; in [3], 13.9 µM; in [4], 15.7 µM; in assay [5], 6.81 µM; in assay [6], 4.58 µM. The TGI worked out at 6.31 µM in assay [7], 12.8 µM in assay [8], 9.22 µM in [9] and 88.9 µM in [10].

Take `O=C(CCCCCCCCC(=O)NN1C(=O)/C(=C\c2ccc(O)c(O)c2)SC1c1c(O)ccc2ccccc12)NN1C(=O)C(=Cc2ccc(O)c(O)c2)SC1c1c(O)ccc2ccccc12` (stereo not drawn): the TGI in assay [1] was greater than 38.6 µM; in assay [2], greater than 70.3 µM; in assay [3], greater than 70 µM; in assay [4], greater than 59.8 µM; in assay [5] it was 6.32 µM; in [6], greater than 100 µM. For the same molecule, the TGI in assay [7] was 62.1 µM; in [8], greater than 57.6 µM; in assay [9] it was 45.6 µM; in assay [10], greater than 100 µM.

Turning to `FC(F)(F)c1ccc2c(c1)nc(Cc1ccccc1)n2C[C@@H]1CCCN2CCCCC12` (stereo partly drawn), the TGI in [1] is 30.6 µM; in assay [2], 28.6 µM; in assay [3], 28.6 µM; in assay [4], 29.3 µM; in [5] it was greater than 54.8 µM; in [6], 28.5 µM. Moreover, the TGI in [7] worked out at 30.4 µM; in [8] it was 23 µM; in assay [9] it was 30.7 µM; in assay [10] it was 30.9 µM.

For `CC(C)(C)c1cc(-c2ccc(-c3cc(C(C)(C)C)c(O)c(C(C)(C)C)c3)cc2)cc(C(C)(C)C)c1O`, the TGI in [1], in assay [2], in [3], in assay [4], in assay [6] and in assay [7] was greater than 100 µM throughout. The TGI in [8], in [9] and in assay [10] was greater than 100 µM in each case.

On to `CO/N=C1\CCC2(O)C3Cc4ccc(O)c5c4C2(CCN3CC2CC2)[C@H]1O5` (stereo partly drawn), for which the TGI in assay [1], in [2], in [3], in assay [4], in [5] and in assay [6] was greater than 100 µM in each case. Further, the TGI in assay [7], in assay [9] and in assay [10] was greater than 100 µM in each case.

With `CC(=O)Oc1ccn2nc(C)c(Br)c2c1Br`, the TGI in assay [1] is greater than 67 µM; in assay [2] it was greater than 100 µM; in [3], greater than 100 µM; in assay [4], greater than 100 µM; in assay [5] it was 47.1 µM; in assay [6], 43.7 µM. The TGI in assay [7] is greater than 76.8 µM; in [9], 37.5 µM; in [10], greater than 100 µM.

Take `Oc1ccc(-c2nc3cc(C(F)(F)F)ccc3n2CC2CCCN3CCCCC23)cc1` (stereo not drawn): the TGI in assay [1] stood at 27.9 µM; in assay [3], 30.7 µM; in assay [4] it was 36.1 µM; in assay [5], 31.8 µM; in assay [6] it was 27.1 µM; in [7], 47.6 µM. For the same molecule, the figures for the TGI in assay [8] and in assay [10] were 34.5 µM and 32.9 µM, respectively.

On to `COc1cccc(NCC(=O)Nn2c(-c3ccccc3)nc3ccccc3c2=O)c1`, for which the TGI in [2], in [3], in [4], in [5], in assay [6] and in assay [7] was greater than 100 µM throughout. Further, the TGI in assay [8], in [9] and in [10] was greater than 100 µM throughout.

On to `Cc1nc2c(nc1C)-c1c(c3c(n1Cc1ccccc1)C(=O)CCC3)C(=O)C2=O`, for which the TGI is 31.7 µM in assay [1]; 28.8 µM in assay [2]; greater than 100 µM in [3]; 88.8 µM in assay [4]; greater than 100 µM in assay [5]; 29.4 µM in assay [6]. Moreover, the figures for the TGI in [7], in [9] and in [10] were greater than 100 µM, 50.9 µM and greater than 100 µM, respectively.

For the molecule `CCOC(=O)CCC(NC(=O)c1ccc(CNc2nc3cc(N)cc(N)c3nc2-c2ccccc2)cc1)C(=O)OCC` (stereo not drawn), the TGI was greater than 87.9 µM in assay [1]; greater than 100 µM in [2]; greater than 100 µM in assay [3]; greater than 100 µM in [4]; greater than 100 µM in assay [6]; 49.1 µM in assay [7]. Also, the TGI in assay [8], in [9] and in [10] was greater than 100 µM in each case.

Consider `COc1ccc(CNc2nc(NCc3ccc(OC)cc3)nc(Nc3ccccc3)n2)cc1`, for which the TGI in assay [1], in assay [2], in assay [3], in [4], in assay [6] and in assay [7] was greater than 100 µM each time. Moreover, the TGI in assay [8], in [9] and in assay [10] was greater than 100 µM throughout.

With `COc1cc(/C=C2\N=C(c3ccccc3)N(C3Nc4cc5c(cc4S3)NC(N3C(=O)/C(=C/c4cc(OC)c(OC)c(OC)c4)N=C3c3ccccc3)S5)C2=O)cc(OC)c1OC` (stereo not drawn), the TGI in assay [1], in assay [3], in assay [4], in assay [6], in assay [7] and in assay [8] was greater than 100 µM throughout. The molecule further yielded a TGI in [10] greater than 100 µM.

Source of the values: PubChem BioAssay (NCI).
